Data on 27 molecules can be found in patent US12065436B2, “Cardiac sarcomere inhibitors” (Cytokinetics, Inc., priority 2018, dated 2024).

This assay addresses bovine cardiac myofibrils (full-length cardiac myosin ATPase in the native sarcomere) (Bos taurus (Bovine), UniProt Q9BE39). In words: Skinned bovine cardiac myofibril ATPase assay (PK/LDH-coupled). The class given is biochemical. Particulars: Ca2+ activating to 75% of maximal rate; for CDMF75 IC15: concentration giving 15% inhibition; for IC50: read-out: CDMF75 IC50. On the procedure:
To evaluate the effect of compounds on the ATPase activity of full-length cardiac myosin in the context of the native sarcomere, skinned myofibril assays were performed. Bovine cardiac myofibrils were obtained by homogenizing bovine cardiac left ventricular tissue in the presence of a detergent such as triton X-100. Such treatment removes membranes and a majority of the soluble cytoplasmic proteins but leaves intact the cardiac sarcomeric acto-myosin apparatus. Myofibril preparations retain the ability to hydrolyze ATP in an Ca^2+ regulated manner. ATPase activities of such myofibril preparations in the presence and absence of compounds were assayed at Ca^2+ concentrations activating to a defined fraction of the maximal rate (i.e., 25%, 75%). Small molecule agents were assessed for their ability to inhibit the steady-state ATPase activity of bovine cardiac myofibrils using pyruvate kinase and lactate dehydrogenase (PK/LDH)-coupled enzyme system. This assay regenerates myosin-produced ADP into ATP by oxidizing NADH, producing an absorbance change at 340 nm. Prior to testing small molecule agents, the bovine cardiac myofibrils were assessed for their calcium responsiveness and the calcium concentration that achieves either a 50% (pCa50) or 75% (pCa75) activation of the myofibril system was chosen as the final condition for assessing the inhibitory activity of the small molecule agents. All enzymatic activity was measured in a buffered solution containing 12 mM PIPES (piperazine-N,N′-bis(2-ethanesulfonic acid), 2 mM magnesium chloride at pH 6.8 (PM 12 buffer). Final assay conditions were 1 mg/mL of bovine cardiac myofibrils, 4 U/mL pyruvate kinase, 6 U/mL lactate dehydrogenase, 50 μM ATP, 0.1 mg/mL BSA (bovine serum albumin), 10 ppm antifoam, 1 mM DTT, 0.5 mM NADH, 1.5 mM PEP, 0.6 mM EGTA, and an amount of CaCl2) sufficient to achieve either 50% or 75% activation of the myofibril ATPase activity.

Chain of bovine cardiac myofibrils (full-length cardiac myosin ATPase in the native sarcomere) (Q9BE39 whole entry): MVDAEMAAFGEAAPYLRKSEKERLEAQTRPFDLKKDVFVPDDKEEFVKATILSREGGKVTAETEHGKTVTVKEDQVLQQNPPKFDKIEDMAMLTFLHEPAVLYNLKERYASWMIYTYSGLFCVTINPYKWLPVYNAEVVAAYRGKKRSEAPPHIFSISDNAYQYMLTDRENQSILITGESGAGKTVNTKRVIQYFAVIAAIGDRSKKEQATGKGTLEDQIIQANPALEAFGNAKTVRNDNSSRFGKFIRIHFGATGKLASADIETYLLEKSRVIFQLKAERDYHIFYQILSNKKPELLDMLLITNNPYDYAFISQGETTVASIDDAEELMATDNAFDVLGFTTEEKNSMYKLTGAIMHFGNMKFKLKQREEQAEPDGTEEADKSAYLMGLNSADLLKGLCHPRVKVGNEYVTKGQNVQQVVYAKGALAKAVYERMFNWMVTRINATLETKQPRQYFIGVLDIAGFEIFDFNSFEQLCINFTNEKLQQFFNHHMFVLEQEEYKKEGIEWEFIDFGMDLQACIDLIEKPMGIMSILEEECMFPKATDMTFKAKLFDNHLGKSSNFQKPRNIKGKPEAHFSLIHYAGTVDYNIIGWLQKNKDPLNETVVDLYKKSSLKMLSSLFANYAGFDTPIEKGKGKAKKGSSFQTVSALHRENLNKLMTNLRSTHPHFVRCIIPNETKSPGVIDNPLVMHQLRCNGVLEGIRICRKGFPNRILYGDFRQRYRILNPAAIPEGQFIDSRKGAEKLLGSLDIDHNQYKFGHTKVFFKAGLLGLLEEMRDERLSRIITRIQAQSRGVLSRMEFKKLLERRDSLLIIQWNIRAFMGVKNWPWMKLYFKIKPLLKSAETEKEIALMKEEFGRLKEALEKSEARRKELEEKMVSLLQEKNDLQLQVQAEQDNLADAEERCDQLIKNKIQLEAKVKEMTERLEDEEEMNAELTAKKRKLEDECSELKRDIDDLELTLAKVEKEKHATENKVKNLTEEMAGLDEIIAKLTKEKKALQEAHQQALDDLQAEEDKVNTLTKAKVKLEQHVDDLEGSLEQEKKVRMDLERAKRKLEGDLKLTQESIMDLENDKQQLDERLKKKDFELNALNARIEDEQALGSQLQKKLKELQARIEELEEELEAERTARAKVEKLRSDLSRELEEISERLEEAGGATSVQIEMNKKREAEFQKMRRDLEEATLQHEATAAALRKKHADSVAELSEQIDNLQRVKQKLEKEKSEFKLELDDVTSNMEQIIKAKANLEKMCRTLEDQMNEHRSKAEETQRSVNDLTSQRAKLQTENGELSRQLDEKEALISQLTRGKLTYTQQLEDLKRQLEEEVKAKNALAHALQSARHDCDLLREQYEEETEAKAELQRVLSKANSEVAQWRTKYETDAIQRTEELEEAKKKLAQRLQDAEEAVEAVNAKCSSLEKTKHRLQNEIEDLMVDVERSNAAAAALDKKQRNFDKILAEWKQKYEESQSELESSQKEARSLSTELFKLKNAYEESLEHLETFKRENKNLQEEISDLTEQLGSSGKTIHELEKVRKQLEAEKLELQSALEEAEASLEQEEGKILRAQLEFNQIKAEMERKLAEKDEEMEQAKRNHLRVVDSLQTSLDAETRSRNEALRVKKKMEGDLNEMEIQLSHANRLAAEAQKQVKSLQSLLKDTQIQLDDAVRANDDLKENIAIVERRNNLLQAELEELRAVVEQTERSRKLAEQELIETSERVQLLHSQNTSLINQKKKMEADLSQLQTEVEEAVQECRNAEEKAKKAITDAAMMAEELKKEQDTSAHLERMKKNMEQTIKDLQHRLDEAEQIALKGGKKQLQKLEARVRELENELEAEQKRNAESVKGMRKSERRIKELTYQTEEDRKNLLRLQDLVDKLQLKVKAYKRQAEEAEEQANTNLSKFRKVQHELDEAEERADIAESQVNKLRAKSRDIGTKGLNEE
Chain of bovine cardiac myofibrils (full-length cardiac myosin ATPase in the native sarcomere) (P85100 whole entry partner): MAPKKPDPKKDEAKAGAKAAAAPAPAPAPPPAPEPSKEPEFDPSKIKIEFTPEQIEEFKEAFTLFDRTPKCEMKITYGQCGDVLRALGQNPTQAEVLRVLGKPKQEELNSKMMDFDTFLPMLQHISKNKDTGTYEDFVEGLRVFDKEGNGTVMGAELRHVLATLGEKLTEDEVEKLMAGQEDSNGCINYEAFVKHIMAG
Chain of bovine cardiac myofibrils (full-length cardiac myosin ATPase in the native sarcomere) (Q3SZE5 whole entry partner): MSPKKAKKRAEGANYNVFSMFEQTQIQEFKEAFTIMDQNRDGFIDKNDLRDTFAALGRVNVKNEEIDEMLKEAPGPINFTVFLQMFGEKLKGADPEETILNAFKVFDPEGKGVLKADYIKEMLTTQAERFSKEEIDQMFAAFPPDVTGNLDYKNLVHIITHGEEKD

Regarding `Cc1nc(-c2ccc3c(c2)CCC3NC(=O)c2nnn(C)n2)no1` (stereo not drawn) [Compound 64, 2-methyl-N-(5-(5-methyl-1,2,4-oxadiazol-3-yl)-2,3-dihydro-1H-inden-1-yl)-2H-tetrazole-5-carboxamide], the “CDMF75 IC15” value was found to be 1.2 µM and the IC50 amounted to 5.1 µM.
Take `Cn1nccc1C(=O)N[C@@H]1CCc2cc(-c3cnccn3)ccc21` [Compound 368, (R)-1-methyl-N-(5-(pyrazin-2-yl)-2,3-dihydro-1H-inden-1-yl)-1H-pyrazole-5-carboxamide]: the “CDMF75 IC15” value came to 17.6 µM and the IC50 was greater than 39.2 µM.
The matching figures for `[2H]C([2H])([2H])c1nc(-c2ccc3c(c2)CC[C@H]3NC(C)=O)no1` [Compound 408, (R)-N-(5-(5-(methyl-d3)-1,2,4-oxadiazol-3-yl)-2,3-dihydro-1H-inden-1-yl)acetamide]: 2.8 µM and 12.8 µM.
Consider `Cc1nc(-c2ccc3c(c2)CCC3NC(=O)Nc2cccnn2)no1` (stereo not drawn) [Compound 97, 1-(5-(5-methyl-1,2,4-oxadiazol-3-yl)-2,3-dihydro-1H-inden-1-yl)-3-(pyridazin-3-yl)urea], for which the “CDMF75 IC15” value was 2.0 µM and the IC50 worked out at 7.8 µM.
With `CCc1nc(-c2ccc3c(c2)CC[C@H]3NC(=O)c2coc(CS(C)(=O)=O)n2)no1` [Compound 468, (R)-N-(5-(5-ethyl-1,2,4-oxadiazol-3-yl)-2,3-dihydro-1H-inden-1-yl)-2-((methylsulfonyl)methyl)oxazole-4-carboxamide], the “CDMF75 IC15” value turned out to be 6.6 µM and the 50% inhibitory concentration (IC50) worked out at 39.2 µM.
For the molecule `O=C(N[C@@H]1CCc2cc(-c3noc(C(F)F)n3)ccc21)C1CCCC1` [Compound 287, (R)-N-(5-(5-(difluoromethyl)-1,2,4-oxadiazol-3-yl)-2,3-dihydro-1H-inden-1-yl)cyclopentanecarboxamide], the “CDMF75 IC15” value was 39.2 µM and the IC50 was greater than 39.2 µM.
Turning to `Cc1cc(C(=O)NC2CCc3cc(-c4coc(C)n4)ccc32)ccn1` (stereo not drawn) [Compound 145, 2-methyl-N-(5-(2-methyloxazol-4-yl)-2,3-dihydro-1H-inden-1-yl)isonicotinamide], the “CDMF75 IC15” value was 39.2 µM and the IC50 is greater than 39.2 µM.
With `[2H]C([2H])([2H])c1nc(-c2ccc3c(c2)CC[C@H]3NC(=O)c2cn(C)nc2C)no1` [Compound 246, (R)-1,3-dimethyl-N-(5-(5-(methyl-d3)-1,2,4-oxadiazol-3-yl)-2,3-dihydro-1H-inden-1-yl)-1H-pyrazole-4-carboxamide], the “CDMF75 IC15” value was found to be 1.1 µM and the IC50 amounted to 3.5 µM.
As to `CCc1nc(-c2ccc3c(c2)CC[C@H]3NC(=O)C2CCCCN2C)no1` (stereo partly drawn) [Compound 353, N-((R)-5-(5-ethyl-1,2,4-oxadiazol-3-yl)-2,3-dihydro-1H-inden-1-yl)-1-methylpiperidine-2-carboxamide], the “CDMF75 IC15” value is 29.0 µM and the IC50 is greater than 39.2 µM.
For `CCc1nc(-c2ccc3c(c2)CC[C@H]3NC(=O)c2cnn(C3CN(S(C)(=O)=O)C3)c2)no1` [Compound 478, (R)-N-(5-(5-ethyl-1,2,4-oxadiazol-3-yl)-2,3-dihydro-1H-inden-1-yl)-1-(1-(methylsulfonyl)azetidin-3-yl)-1H-pyrazole-4-carboxamide], the “CDMF75 IC15” value was 2.9 µM and the IC50 was determined as 11.9 µM.
Taken in the same sequence, the figures for `[2H]C([2H])([2H])c1nc(-c2ccc3c(c2)CC[C@H]3NC(=O)c2cc(C)nn2C)no1` [Compound 247, (R)-1,3-dimethyl-N-(5-(5-(methyl-d3)-1,2,4-oxadiazol-3-yl)-2,3-dihydro-1H-inden-1-yl)-1H-pyrazole-5-carboxamide] were 0.8 µM and 2.6 µM.
Regarding `Cc1nc(-c2ccc3c(c2)CCC3NC(=O)c2ncnn2C)no1` (stereo not drawn) [Compound 120, 1-methyl-N-(5-(5-methyl-1,2,4-oxadiazol-3-yl)-2,3-dihydro-1H-inden-1-yl)-1H-1,2,4-triazole-5-carboxamide], the “CDMF75 IC15” value worked out at 2.4 µM and the IC50 turned out to be 9.8 µM.
`CCc1nc(-c2ccc3c(c2)CC[C@H]3NC(=O)[C@H]2CCC(=O)N2)no1` [Compound 335, (R)-N-((R)-5-(5-ethyl-1,2,4-oxadiazol-3-yl)-2,3-dihydro-1H-inden-1-yl)-5-oxopyrrolidine-2-carboxamide]: the “CDMF75 IC15” value stood at 19.1 µM and the IC50 is greater than 39.2 µM.
With `C[C@H](CO)c1nc(-c2ccc3c(c2)CC[C@H]3NC(=O)c2ccnn2C)no1` [Compound 497, N-((R)-5-(5-((R)-1-hydroxypropan-2-yl)-1,2,4-oxadiazol-3-yl)-2,3-dihydro-1H-inden-1-yl)-1-methyl-1H-pyrazole-5-carboxamide], the “CDMF75 IC15” value was 7.4 µM and the IC50 was 39.2 µM.
Turning to `Cc1cc(C(=O)N[C@@H]2CCc3cc(-c4cnc(C)o4)ccc32)ccn1` [Compound 135, (R)-2-methyl-N-(5-(2-methyloxazol-5-yl)-2,3-dihydro-1H-inden-1-yl)isonicotinamide], the “CDMF75 IC15” value was 39.2 µM and the half-inhibitory concentration (IC50) is greater than 39.2 µM.
Turning to `Cc1cc(-c2ccc3c(c2)CC[C@H]3NC(=O)c2cnn(C)c2)no1` [Compound 402, (R)-1-methyl-N-(5-(5-methylisoxazol-3-yl)-2,3-dihydro-1H-inden-1-yl)-1H-pyrazole-4-carboxamide], the “CDMF75 IC15” value was 1 µM and the IC50 amounted to 3.8 µM.
On to `Cc1cc(C(=O)N[C@H]2CCc3cc(-c4nnn(C)n4)ccc32)ccn1` [Compound 149, (S)-2-methyl-N-(5-(2-methyl-2H-tetrazol-5-yl)-2,3-dihydro-1H-inden-1-yl)isonicotinamide], for which the “CDMF75 IC15” value came to 39.2 µM and the IC50 is greater than 39.2 µM.
The matching figures for `COCc1nc(-c2ccc3c(c2)CC[C@H]3NC(=O)c2cnn(CCO)c2C)no1` [Compound 694, (R)-1-(2-hydroxyethyl)-N-(5-(5-(methoxymethyl)-1,2,4-oxadiazol-3-yl)-2,3-dihydro-1H-inden-1-yl)-5-methyl-1H-pyrazole-4-carboxamide]: 1.8 µM and 7 µM.
`Cc1cc(-c2ccc3c(c2)CC[C@H]3NC(=O)c2ccnn2C)no1` [Compound 403, (R)-1-methyl-N-(5-(5-methylisoxazol-3-yl)-2,3-dihydro-1H-inden-1-yl)-1H-pyrazole-5-carboxamide]: the “CDMF75 IC15” value was found to be 0.4 µM and the IC50 was determined as 1.2 µM.
Turning to `Cc1nc(-c2ccc3c(c2)CC[C@H]3NC(=O)c2cn(C)nc2C)no1` [Compound 111, (R)-1,3-dimethyl-N-(5-(5-methyl-1,2,4-oxadiazol-3-yl)-2,3-dihydro-1H-inden-1-yl)-1H-pyrazole-4-carboxamide], the “CDMF75 IC15” value amounted to 1.1 µM and the IC50 is 3.7 µM.
As for `C=Cc1nc(-c2ccc3c(c2)CC[C@H]3NC(=O)c2cnn(C)c2)no1` [Compound 547, N-[(1R)-5-(5-vinyl(1,2,4-oxadiazol-3-yl))indanyl](1-methylpyrazol-4-yl)carboxamide], the “CDMF75 IC15” value came to 0.4 µM and the 50% inhibitory concentration (IC50) amounted to 1.5 µM.
Take `Cc1nn(C)cc1C(=O)N[C@@H]1CCc2cc(-c3noc(C(C)C)n3)ccc21` [Compound 152, (R)-N-(5-(5-isopropyl-1,2,4-oxadiazol-3-yl)-2,3-dihydro-1H-inden-1-yl)-1,3-dimethyl-1H-pyrazole-4-carboxamide]: the “CDMF75 IC15” value worked out at 0.6 µM and the concentration for half-maximal inhibition (IC50) stood at 2.2 µM.
The matching figures for `CCc1nc(-c2ccc3c(c2)CC[C@H]3NC(C)=O)no1` [Compound 405, (R)-N-(5-(5-ethyl-1,2,4-oxadiazol-3-yl)-2,3-dihydro-1H-inden-1-yl)acetamide]: 0.6 µM and 2.3 µM.
The matching figures for `Cc1nc(-c2ccc3c(c2)CC[C@H]3NC(=O)c2c[nH]nc2C)no1` [Compound 400, (R)-3-methyl-N-(5-(5-methyl-1,2,4-oxadiazol-3-yl)-2,3-dihydro-1H-inden-1-yl)-1H-pyrazole-4-carboxamide]: 0.8 µM and 2.8 µM.
In the case of `Cc1cnc(C(=O)NC2CCc3cc(-c4noc(C(F)F)n4)ccc32)c(C)n1` (stereo not drawn) [Compound 41, N-(5-(5-(difluoromethyl)-1,2,4-oxadiazol-3-yl)-2,3-dihydro-1H-inden-1-yl)-3,5-dimethylpyrazine-2-carboxamide], the “CDMF75 IC15” value was 6.6 µM and the IC50 is greater than 39.2 µM.
Taken in the same sequence, the figures for `O=C(NC1CCc2cc(-c3noc(C(F)F)n3)ccc21)c1cncs1` (stereo not drawn) [Compound 11, N-(5-(5-(difluoromethyl)-1,2,4-oxadiazol-3-yl)-2,3-dihydro-1H-inden-1-yl)thiazole-5-carboxamide] were 0.8 µM and 3.4 µM.
The matching figures for `C=Cc1cccc(C(=O)N[C@@H]2CCc3cc(-c4noc(CC)n4)ccc32)c1` [Compound 657, (R)-N-(5-(5-ethyl-1,2,4-oxadiazol-3-yl)-2,3-dihydro-1H-inden-1-yl)-3-vinylbenzamide]: 0.3 µM and 0.7 µM.

As usually defined, the IC50 is the midpoint of a concentration-inhibition curve.
